The values that follow are results of earlier work, collected in patent EP3373945B1, “AN ORAL DRUG FORMULATION COMPRISING SILYBIN” (ISTITUTO BIOCHIMICO ITALIANO GIOVANNI LORENZINI S.p.A., priority 2015, dated 2017).

SMILES strings stand for the structures. ≈ marks a conversion by molar mass, not a printed value.

`COc1cc(C2Oc3cc([C@H]4Oc5cc(O)cc(O)c5C(=O)[C@@H]4O)ccc3OC2CO)ccc1O` (stereo partly shown) [silybin]: the water solubility is 430 µg/mL (≈ 891 µM).
